Source: paper PMC4051630, “A Comparison of Protein Kinases Inhibitor Screening Methods Using Both Enzymatic Activity and Binding Affinity Determination” (PLoS ONE, 2014)

Key:
Assay in all cases: Differential Scanning Fluorimetry (DSF) Tm shift
Assay type in all cases: binding
PAK7 Catalytic Domain = target: T1, PAK7 Catalytic Domain (Homo sapiens, UniProt Q9P286); conditions: 2 µM protein, 10 µM inhibitor, average of 3 experiments, each in duplicate
T1 construct: For all of them, we expressed and purified the catalytic domain separately; His-tag; made in house; host or cells: Escherichia coli
T1 sequence (Q9P286 449-700 limits assumed): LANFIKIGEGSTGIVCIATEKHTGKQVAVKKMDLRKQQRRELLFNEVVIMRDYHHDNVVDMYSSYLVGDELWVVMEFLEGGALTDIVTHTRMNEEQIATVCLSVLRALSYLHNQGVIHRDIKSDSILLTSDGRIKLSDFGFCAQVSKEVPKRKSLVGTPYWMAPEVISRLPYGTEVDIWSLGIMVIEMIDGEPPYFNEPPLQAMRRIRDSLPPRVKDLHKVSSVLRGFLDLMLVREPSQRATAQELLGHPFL

AKT3 Catalytic Domain = target: T2, AKT3 Catalytic Domain (Homo sapiens, UniProt Q9Y243); conditions: 2 µM protein, 10 µM inhibitor, average of 3 experiments, each in duplicate
T2 construct: AKT3 (Q9Y243); CD; His-tag; made in house; host or cells: Escherichia coli
T2 sequence (Q9Y243 122-479): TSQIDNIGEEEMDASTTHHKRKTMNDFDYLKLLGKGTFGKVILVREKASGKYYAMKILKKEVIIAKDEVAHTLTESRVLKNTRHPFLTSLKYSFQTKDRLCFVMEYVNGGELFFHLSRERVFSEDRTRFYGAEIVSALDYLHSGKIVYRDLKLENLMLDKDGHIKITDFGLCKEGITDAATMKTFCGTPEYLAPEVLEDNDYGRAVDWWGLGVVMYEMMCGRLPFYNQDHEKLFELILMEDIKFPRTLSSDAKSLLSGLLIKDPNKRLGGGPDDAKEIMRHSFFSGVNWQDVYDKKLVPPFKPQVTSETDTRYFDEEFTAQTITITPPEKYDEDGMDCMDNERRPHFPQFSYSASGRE

CDK2 + Cyclin A = target: T3, CDK2 + Cyclin A (Homo sapiens, UniProt P24941); conditions: CDK2 + Cyclin A; 2 µM protein, 10 µM inhibitor; average of 3 experiments, each in duplicate
T3 construct: CDK2 (P24941); 1–299; His-tag; made in house; host or cells: Escherichia coli

PAK4 Catalytic Domain = target: T4, PAK4 Catalytic Domain (Homo sapiens, UniProt O96013); conditions: 2 µM protein, 10 µM inhibitor, average of 3 experiments, each in duplicate
T4 construct: For all of them, we expressed and purified the catalytic domain separately; His-tag; made in house; host or cells: Escherichia coli
T4 sequence (O96013 321-572 limits assumed): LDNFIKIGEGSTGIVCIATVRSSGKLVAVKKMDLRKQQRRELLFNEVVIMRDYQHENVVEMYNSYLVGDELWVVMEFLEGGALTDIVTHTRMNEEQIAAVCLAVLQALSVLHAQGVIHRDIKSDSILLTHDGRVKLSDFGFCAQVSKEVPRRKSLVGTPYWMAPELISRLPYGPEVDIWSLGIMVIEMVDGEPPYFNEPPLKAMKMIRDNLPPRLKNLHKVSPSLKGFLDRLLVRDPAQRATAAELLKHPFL

CHK2 Catalytic Domain = target: T5, CHK2 Catalytic Domain (Homo sapiens, UniProt O96017); conditions: 2 µM protein, 10 µM inhibitor, average of 3 experiments, each in duplicate
T5 construct: For all of them, we expressed and purified the catalytic domain separately; His-tag; made in house; host or cells: Escherichia coli
T5 sequence (O96017 220-486 limits assumed): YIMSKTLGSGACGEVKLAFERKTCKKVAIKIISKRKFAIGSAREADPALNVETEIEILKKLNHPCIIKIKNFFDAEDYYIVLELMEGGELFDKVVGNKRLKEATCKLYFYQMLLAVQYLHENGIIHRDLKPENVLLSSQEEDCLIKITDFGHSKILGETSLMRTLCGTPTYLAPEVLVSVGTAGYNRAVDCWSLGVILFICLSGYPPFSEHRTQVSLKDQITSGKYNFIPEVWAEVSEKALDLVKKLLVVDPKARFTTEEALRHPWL

DMPK Catalytic Domain = target: T6, DMPK Catalytic Domain (Homo sapiens, UniProt Q09013); conditions: 2 µM protein, 10 µM inhibitor, average of 3 experiments, each in duplicate
T6 construct: For all of them, we expressed and purified the catalytic domain separately; His-tag; made in house; host or cells: Escherichia coli
T6 sequence (Q09013 71-339 limits assumed): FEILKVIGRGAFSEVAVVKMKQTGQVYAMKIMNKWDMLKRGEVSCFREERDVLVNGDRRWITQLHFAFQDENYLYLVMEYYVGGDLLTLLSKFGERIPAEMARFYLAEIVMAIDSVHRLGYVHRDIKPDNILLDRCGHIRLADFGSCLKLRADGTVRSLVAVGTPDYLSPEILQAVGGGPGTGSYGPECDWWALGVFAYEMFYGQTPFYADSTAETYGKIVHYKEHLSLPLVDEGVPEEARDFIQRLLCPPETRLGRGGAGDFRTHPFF

[1] = target: SRC Catalytic Domain+SH2+SH3 (Homo sapiens, UniProt P12931); conditions: 2 µM protein, 10 µM inhibitor, average of 3 experiments, each in duplicate
FES Catalytic Domain+SH2 = target: T7, FES Catalytic Domain+SH2 (Homo sapiens, UniProt P07332); conditions: 2 µM protein, 10 µM inhibitor, average of 3 experiments, each in duplicate
T7 construct: for 8, we also made a longer version containing one or more additional domains; His-tag; made in house; host or cells: Escherichia coli
T7 sequence (P07332 448-822 limits assumed): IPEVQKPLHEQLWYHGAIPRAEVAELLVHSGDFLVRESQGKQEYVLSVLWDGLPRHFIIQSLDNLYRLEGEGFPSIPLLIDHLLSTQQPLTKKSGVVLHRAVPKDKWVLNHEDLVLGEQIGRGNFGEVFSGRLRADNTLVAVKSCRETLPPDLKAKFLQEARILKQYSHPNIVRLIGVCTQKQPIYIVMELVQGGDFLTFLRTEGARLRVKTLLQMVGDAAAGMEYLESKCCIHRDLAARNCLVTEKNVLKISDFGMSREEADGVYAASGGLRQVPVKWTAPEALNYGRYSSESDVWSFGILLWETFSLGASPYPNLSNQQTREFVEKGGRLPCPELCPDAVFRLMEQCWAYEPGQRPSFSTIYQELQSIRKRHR

SRC Catalytic Domain = SRC Catalytic Domain (Homo sapiens, UniProt P12931); set-up: For all of them, we expressed and purified the catalytic domain separately; His-tag; made in house; host or cells: Escherichia coli; conditions: 2 µM protein, 10 µM inhibitor, average of 3 experiments, each in duplicate
STK3 Catalytic Domain = target: T8, STK3 Catalytic Domain (Homo sapiens, UniProt Q13188); conditions: 2 µM protein, 10 µM inhibitor, average of 3 experiments, each in duplicate
T8 construct: For all of them, we expressed and purified the catalytic domain separately; His-tag; made in house; host or cells: Escherichia coli
T8 sequence (Q13188 27-278 limits assumed): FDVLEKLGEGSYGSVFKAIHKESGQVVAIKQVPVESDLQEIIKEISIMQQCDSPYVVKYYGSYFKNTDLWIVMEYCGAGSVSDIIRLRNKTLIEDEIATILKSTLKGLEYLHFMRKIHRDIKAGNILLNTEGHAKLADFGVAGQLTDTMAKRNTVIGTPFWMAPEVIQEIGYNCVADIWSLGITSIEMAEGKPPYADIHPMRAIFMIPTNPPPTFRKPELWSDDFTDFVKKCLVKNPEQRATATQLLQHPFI

[2] = target: T9, STK3 Catalytic domain+SARAH (Homo sapiens, UniProt Q13188); conditions: 2 µM protein, 10 µM inhibitor, average of 3 experiments, each in duplicate
T9 construct: for 8, we also made a longer version containing one or more additional domains; His-tag; made in house; host or cells: Escherichia coli
T9 sequence (Q13188 1-491): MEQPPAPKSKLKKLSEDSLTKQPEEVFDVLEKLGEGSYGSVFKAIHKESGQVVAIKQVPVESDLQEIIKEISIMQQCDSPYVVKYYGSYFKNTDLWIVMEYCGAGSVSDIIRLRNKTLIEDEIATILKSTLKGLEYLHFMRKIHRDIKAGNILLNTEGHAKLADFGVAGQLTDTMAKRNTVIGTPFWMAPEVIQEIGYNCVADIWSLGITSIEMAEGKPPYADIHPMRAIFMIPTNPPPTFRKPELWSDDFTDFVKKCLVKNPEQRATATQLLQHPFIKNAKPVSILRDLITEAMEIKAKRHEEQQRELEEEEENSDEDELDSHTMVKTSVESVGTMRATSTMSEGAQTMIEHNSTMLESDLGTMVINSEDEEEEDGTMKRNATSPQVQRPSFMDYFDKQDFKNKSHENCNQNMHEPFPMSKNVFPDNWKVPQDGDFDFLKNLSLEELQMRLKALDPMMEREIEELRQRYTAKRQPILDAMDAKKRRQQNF

FAK2 Catalytic Domain = target: T10, FAK2 Catalytic Domain (Homo sapiens, UniProt Q14289); conditions: 2 µM protein, 10 µM inhibitor, average of 3 experiments, each in duplicate
T10 construct: For all of them, we expressed and purified the catalytic domain separately; His-tag; made in house; host or cells: Escherichia coli
T10 sequence (Q14289 425-683 limits assumed): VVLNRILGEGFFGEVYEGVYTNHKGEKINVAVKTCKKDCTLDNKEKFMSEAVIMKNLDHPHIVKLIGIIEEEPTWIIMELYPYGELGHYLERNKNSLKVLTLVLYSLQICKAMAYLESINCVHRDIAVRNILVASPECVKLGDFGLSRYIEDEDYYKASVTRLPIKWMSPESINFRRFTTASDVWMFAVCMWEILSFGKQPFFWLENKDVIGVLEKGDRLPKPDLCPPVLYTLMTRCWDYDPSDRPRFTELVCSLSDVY

[3] = target: T11, PAK4 Catalytic Domain+PBD (Homo sapiens, UniProt O96013); conditions: 2 µM protein, 10 µM inhibitor, average of 3 experiments, each in duplicate
T11 construct: for 8, we also made a longer version containing one or more additional domains; His-tag; made in house; host or cells: Escherichia coli
T11 sequence (O96013 whole entry, the tested form may be a part): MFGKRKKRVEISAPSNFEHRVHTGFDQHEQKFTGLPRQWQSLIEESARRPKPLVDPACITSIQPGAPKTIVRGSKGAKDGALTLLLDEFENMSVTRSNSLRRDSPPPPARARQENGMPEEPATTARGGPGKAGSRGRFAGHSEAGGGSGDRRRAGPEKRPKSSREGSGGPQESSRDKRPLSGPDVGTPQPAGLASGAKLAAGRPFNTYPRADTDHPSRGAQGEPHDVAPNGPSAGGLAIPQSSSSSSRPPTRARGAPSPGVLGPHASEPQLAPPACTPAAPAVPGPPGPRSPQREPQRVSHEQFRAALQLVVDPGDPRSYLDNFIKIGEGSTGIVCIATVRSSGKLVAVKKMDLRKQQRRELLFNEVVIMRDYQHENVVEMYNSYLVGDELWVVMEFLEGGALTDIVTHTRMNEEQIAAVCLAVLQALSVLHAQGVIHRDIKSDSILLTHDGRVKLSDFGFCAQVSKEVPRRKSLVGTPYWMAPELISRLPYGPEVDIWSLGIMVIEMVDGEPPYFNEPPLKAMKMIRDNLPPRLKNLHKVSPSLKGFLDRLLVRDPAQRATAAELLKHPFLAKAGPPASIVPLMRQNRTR

CDK2 + Cyclin E = target: T12, CDK2 + Cyclin E (Homo sapiens, UniProt P24941); conditions: CDK2 + Cyclin E; 2 µM protein, 10 µM inhibitor; average of 3 experiments, each in duplicate
T12 construct: CDK2 (P24941); 1–299; His-tag; made in house; host or cells: Escherichia coli

FES Catalytic Domain = target: T13, FES Catalytic Domain (Homo sapiens, UniProt P07332); conditions: 2 µM protein, 10 µM inhibitor, average of 3 experiments, each in duplicate
T13 construct: For all of them, we expressed and purified the catalytic domain separately; His-tag; made in house; host or cells: Escherichia coli
T13 sequence (P07332 561-822 limits assumed): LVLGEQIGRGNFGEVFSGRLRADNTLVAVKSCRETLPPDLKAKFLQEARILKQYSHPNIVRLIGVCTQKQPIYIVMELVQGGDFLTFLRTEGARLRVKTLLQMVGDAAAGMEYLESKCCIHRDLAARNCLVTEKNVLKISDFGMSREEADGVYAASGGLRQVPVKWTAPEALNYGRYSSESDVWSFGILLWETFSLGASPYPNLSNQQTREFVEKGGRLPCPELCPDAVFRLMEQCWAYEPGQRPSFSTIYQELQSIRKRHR

Compound | Melting temperature (Tm) shift (PAK7 Catalytic Domain) [degrees Celcius] | Melting temperature (Tm) shift (AKT3 Catalytic Domain) [degrees Celcius] | Melting temperature (Tm) shift (CDK2 + Cyclin A) [degrees Celcius] | Melting temperature (Tm) shift (PAK4 Catalytic Domain) [degrees Celcius] | Melting temperature (Tm) shift (CHK2 Catalytic Domain) [degrees Celcius] | Melting temperature (Tm) shift (DMPK Catalytic Domain) [degrees Celcius] | Melting temperature (Tm) shift [1] [degrees Celcius] | Melting temperature (Tm) shift (FES Catalytic Domain+SH2) [degrees Celcius] | Melting temperature (Tm) shift (SRC Catalytic Domain) [degrees Celcius] | Melting temperature (Tm) shift (STK3 Catalytic Domain) [degrees Celcius] | Melting temperature (Tm) shift [2] [degrees Celcius] | Melting temperature (Tm) shift (FAK2 Catalytic Domain) [degrees Celcius] | Melting temperature (Tm) shift [3] [degrees Celcius] | Melting temperature (Tm) shift (CDK2 + Cyclin E) [degrees Celcius] | Melting temperature (Tm) shift (FES Catalytic Domain) [degrees Celcius]
c1cc(-c2cnn3cc(-c4ccc(OCCN5CCCCC5)cc4)cnc23)ccn1 [AMPK Inhibitor, Compound C] | 0.5 | 0.3 | 1.0 | 0.7 | 1.1 | 1.5 | 0.6 | 0.4 | 0.5 | 0.3 | 0.4 | 0.1 | 0.8 | 0.5 | 1.2
CCCCc1c(-c2ccc(O)cc2)[nH]c2nccnc12 [Aloisine A, RP107, Aloisine A] | 1.2 | 0.1 | 2.5 | 1.3 | 2.7 | 1.4 | 1.1 | 0.5 | 1.5 | 1.6 | 1.4 | 1.2 | 1.3 | 1.4 | 0.9
N#CCCc1ccc2c(c1)-c1[nH]c3ccc([N+](=O)[O-])cc3c1CC(=O)N2 [Alsterpaullone, 2-Cyanoethyl] | 1.3 | 0.1 | 0.5 | 0.9 | 1.9 | 3.4 | 0.3 | 0.3 | 0.2 | 1.7 | 1.5 | 0.6 | 0.3 | 0.5 | 1.3
O=C1Cc2c([nH]c3ccc([N+](=O)[O-])cc23)-c2ccccc2N1 [Alsterpaullone] | 0.3 | 0.1 | 0.4 | 0.2 | 0.9 | 1.8 | 0.2 | 0.1 | 0.0 | 0.3 | 0.7 | 0.4 | 0.3 | 0.2 | 0.3
O=C1NC(=O)C(c2c[nH]c3ccccc23)=C1c1c[nH]c2ccccc12 [Bisindolylmaleimide IV] | 0.1 | 0.0 | 0.9 | 0.4 | 4.1 | 2.7 | 0.0 | 0.9 | 0.3 | 0.9 | 2.0 | 0.1 | 0.0 | 0.7 | 0.5
O=C(c1cc2cc(O)ccc2[nH]1)c1cc2cc(O)ccc2[nH]1 [Flt-3 Inhibitor II] | 0.6 | 0.1 | 0.9 | 0.9 | 2.2 | – | 1.3 | 0.0 | 1.3 | 2.3 | 2.3 | 0.4 | 0.9 | 0.2 | 1.0
CCCCn1c2ccc(O)cc2c2c3c(c(-c4ccccc4Cl)cc21)C(=O)NC3=O [Wee1 Inhibitor II] | 0.3 | 0.1 | 0.1 | 0.5 | 0.1 | 0.6 | 0.2 | 0.2 | 0.3 | – | 1.2 | 0.9 | 1.0 | 0.8 | 0.0
Scytonemin [Scytonemin, Lyngbya sp.] | 0.0 | 0.0 | 0.3 | 0.6 | – | 0.3 | 0.3 | 0.2 | 0.0 | 0.5 | 0.4 | 0.2 | 0.7 | 0.8 | –
